Results reported in the supplement of paper PMC10883282.

Key:
Test in all cases: relative viability vs DMSO control (72 h) (fraction); higher = more viable cells
[1] = tested on: VA-ES-BJ
Procedure, shortened: (§1)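 Sarcoma cell lines were plated in 384 wells to reach 80–90% confluence, treated after 24 h with 2.5 µl of serially diluted compound and held 72 h at 37 °C, 5% CO2. Relative viability was taken as percent growth from ATPLite readings, averaged over up to triplicate wells. The values were rescaled so that 1 marks full and 0 marks none.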

[2] = tested on: HT1080
Procedure, shortened: as §1

[3] = tested on: KHOS-NP
Procedure, shortened: as §1

[4] = tested on: RD-ES
Procedure, shortened: as §1

[5] = tested on: RD
Procedure, shortened: as §1

CNC(=O)c1cccc2cc(Oc3ccnc4cc(OCC5(N)CC5)c(OC)cc34)ccc12 [Lucitanib]
relative viability
Details	[1]	[2]	[3]	[4]	[5]
0.00017 µM	1.08	1.08	1.103	0.984	1.08
0.00051 µM	1.07	1.09	1.13	1.01	1.12
0.00152 µM	1.09	1.1	1.12	1	1.1
0.00457 µM	1.091	1.07	1.11	1	1.13
0.01372 µM	1.1	1.1	1.11	0.969	1.09
0.04115 µM	1.11	1.09	1.11	0.99	1.129
0.1235 µM	1.12	1.095	1.126	0.981	1.13
0.3704 µM	1.13	1.09	1.11	0.949	1.142
1.111 µM	1.16	1.11	1.12	0.92	1.144
3.333 µM	1.14	1.12	1.12	0.882	1.12
10 µM	0.914	1.14	1.13	0.798	0.9078

CCOc1cc2ncc(C#N)c(Nc3ccc(OCc4ccccn4)c(Cl)c3)c2cc1NC(=O)/C=C/CN(C)C [Neratinib]
relative viability
Details	[1]	[2]	[3]	[4]	[5]
0.00017 µM	0.999	1.05	1.042	1.03	1.12
0.00051 µM	1.01	1.05	1.022	1.01	1.1
0.00152 µM	1.02	1.028	1.022	0.999	1.11
0.00457 µM	1	1.04	1.01	0.996	1.11
0.01372 µM	0.969	1.047	1.04	0.997	1.09
0.04115 µM	0.92	1.07	1.01	0.977	1.072
0.1235 µM	0.891	1.08	1.05	0.938	0.95
0.3704 µM	0.734	0.992	1.02	0.737	0.714
1.111 µM	0.503	0.726	0.73	0.498	0.562
3.333 µM	0.483	0.603	0.484	0.431	0.384
10 µM	0.46	0.00637	0.486	0.345	0.0033

COC(=O)c1ccc2c(c1)NC(=O)/C2=C(\Nc1ccc(N(C)C(=O)CN2CCN(C)CC2)cc1)c1ccccc1 [Nintedanib]
relative viability
Details	[1]	[2]	[3]	[4]	[5]
0.00017 µM	1.04	1.05	1.06	0.955	1.03
0.00051 µM	1.06	1.08	1.06	0.96	1.03
0.00152 µM	1.04	1.06	1.06	0.944	0.989
0.00457 µM	1.06	1.06	1.06	0.958	1.01
0.01372 µM	1.05	1.069	1.06	0.945	0.977
0.04115 µM	1.045	1.07	1.06	0.927	0.97
0.1235 µM	1.05	1.06	1.05	0.806	0.96
0.3704 µM	1.03	1.06	1.04	0.73	0.965
1.111 µM	0.993	1.07	1.037	0.706	0.873
3.333 µM	0.994	1.01	0.982	0.667	0.777
10 µM	0.803	0.084	0.146	0.203	0.0216
